Experimental data from patent publication US11312722B2, “Hsp90 inhibitors and uses thereof” (TRUSTEES OF BOSTON UNIVERSITY, priority 2019, dated 2022).
One block for each molecule: values may come before it.

Experiments:
[1] = molecular target: Hsp90 (C. albicans whole cell lysate) (Candida albicans (strain SC5314 / ATCC MYA-2876) (Yeast), UniProt P46598); assay: biochemical; format: binding; conditions: for C. alb Active (biochemical): Yes/No call; for EC50: read-out: C. alb EC50
Outline: (§1)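 In this fluorescence polarization competition assay, compound titrations in buffer with 0.1 mg/mL bovine gamma globulin were mixed with fungal whole-cell lysate spiked with 0.1 nM Cy3-geldanamycin probe. Plates were incubated 4.5 h at room temperature. EC50 came from 4-parameter fits of probe displacement, normalized to GdA in the same lysate.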

[2] = system: C. neoformans (Strain H99); assay: Antifungal sensitivity testing (MIC), C. neoformans H99; format: cell-based; conditions: for MIC80 / MIC90: Cryptococcus neoformans; for MIC80: read-out: C. neo MIC80; for MIC90: read-out: C. neo MIC90; for C. neo Active (cells): Yes/No call
C. neoformans Hsp90 NBD [3] = molecular target: T1, C. neoformans Hsp90 NBD (Cryptococcus neoformans, UniProt J9VVA4); assay: biochemical; format: binding; conditions: SPR, 25° C., read-out: Biacore KD
Experimental: SPR assays. For SPR experiments, Hsp90 NBD expression constructs were modified to encode a C-terminal AviTag™ for site-specific on-column biotinylation with a BirA biotin-ligase kit (Avidity LLC; BirA-500). SPR experiments were performed on a Biacore T200 instrument at 25° C. Biotinylated Hsp90 NBD was diluted to 40 μg/mL and immobilized on a streptavidin chip (Sensor Chip SA, GE Healthcare) at a density of 2000-2500 response units (RU) on the biosensor surface. […] Resulting sensorgrams were analyzed with a fit to a 1:1 binding model, using BIA evaluation software.

in vitro = conditions: both, CD-1, mouse; for CLint scaled at 1 μM: liver microsomes; for half-life: microsomes
[4] = mouse liver microsomes; for % remaining at 15 min (NADPH-free): NADPH-free control; for % remaining at 15 min / % remaining at 60 min: with NADPH
[5] = system: Hsp90 (C. albicans whole cell lysate); assay: biochemical; format: binding; conditions: for C. alb Selective: Yes/No call
Outline: as §1

C. neoformans Hsp90 NBD [6] = molecular target: T1, C. neoformans Hsp90 NBD; assay: FP assay with purified C. neoformans Hsp90 NBD (Ki); format: binding; conditions: for C. neo Selectivity (FS): C. neo FS calculated using Ki
Experimental: Thermal shift assays were performed under saturating ligand conditions, i.e. equimolar concentrations (10 μM) of protein and ligand. As a result, they can provide only qualitative evidence of target binding, but not a quantitative measurement of ligand affinity. […] Titrations of the Cy3-GdA probe and purified proteins were evaluated to define assay conditions and to determine the dissociation constant Kd of the probe for each NBD. Serial dilutions of test Hsp90 inhibitors were then assayed in triplicate wells under these conditions. Non-linear 4-parameter curve fitting of raw displacement data was performed in GraphPad Prism 5.0 to determine IC50 values. Finally, inhibitory constants (Ki) were calculated as described previously.
NBD expression and purification. Recombinant Hsp90 NBDs were expressed and purified as previously described. Stock protein solutions in 50% glycerol were stored at −20° C. until dilution into relevant buffers and use for FP and thermal shift assays.

[7] = system: Hsp90 (C. neoformans whole cell lysate); format: binding; conditions: Yes/No call
Experimental: (§2) All analogs were assessed for Hsp90 binding affinity using a fluorescence polarization (FP)-based equilibrium competition assay in fungal and human whole cell lysates. […] Using lysates, the relative potency and selectivity for fungal Hsp90 was measured versus the entire ensemble of human Hsp90 isoforms in microplate format using small amounts of test materials. […] Thermal shift assays were performed under saturating ligand conditions, i.e. equimolar concentrations (10 μM) of protein and ligand. As a result, they provided qualitative evidence of target binding, but not a quantitative measurement of ligand affinity. For quantitation, a ligand dissociation constant (Ki) for key compounds was also determined using purified NBDs in FP assays and KD measurements were made by surface plasmon resonance (SPR) using a Biacore instrument. Finally, all analogs were assessed for whole cell antifungal activity against the pathogens C. albicans and C. neoformans.
(§3) FP assays. Whole cell lysates were prepared for FP assays as described previously. Total protein concentration of human and yeast lysates was determined by Bradford assay. […] Serial dilutions of test Hsp90 inhibitors were then assayed under these same conditions to monitor loss of fluorescence polarization as an indicator of probe displacement from Hsp90. […] Titrations of test compound in 25 μL of binding buffer (supplemented with 0.1 mg/mL bovine gamma globulin), were mixed with an equal volume of freshly prepared whole-cell lysate spiked with Cy3-GdA (0.1 nM). Plates were incubated at room temperature for 4.5 h to achieve equilibrium binding for the geldanamycin-based probe. […] Non-linear 4-parameter curve fitting of raw displacement data was performed in GraphPad Prism 5.0 to determine EC50 values as a measure of relative Hsp90-binding affinity. Results were normalized to the value determined for GdA in lysate of each cell type.
(§4) Statistical methods. […] In calculating the error of selectivity determinations, the fractional error of measurements in each species was summed to yield a composite error for the derived ratio.

[8] = molecular target: Hsp90 (C. neoformans whole cell lysate) (Cryptococcus neoformans, UniProt J9VVA4); format: binding; conditions: for C. neo Active (biochemical): Yes/No call; for EC50: read-out: C. neo EC50
Experimental: as §2, §3, §4

[9] = system: C. albicans clinical isolate (CaCi2); assay: Fungicidal activity: spotting of MIC cultures onto compound-free YPD agar; format: cell-based; conditions: C. albicans CaCi2, spotted on YPD agar after 48 h exposure
Experimental: Color scale bar: no growth inhibition (green) to complete inhibition (black). Each shaded box represents the mean of technical duplicates. The experiment was repeated as an independent biological replicate to confirm results.
Each shaded box represents the mean of technical duplicates. Relative viable cell number was monitored by standard dye reduction assay after 3-hr incubation with resazurin at 37° C. FIG. 6B: Following exposure to compounds, aliquots of the culture in each well were spotted onto compound-free YPD agar and plates incubated at 30° C. for an additional 24 hours before imaging to assess viability. The entire experiment consisting of growth in liquid culture followed by spotting onto YPD agar was repeated once.
Antifungal sensitivity testing. […] Each compound was tested in duplicate in at least two independent experiments. […] Plates were photographed after 24 h of incubation at 30° C.

C. neoformans Hsp90 NBD [10] = molecular target: T1, C. neoformans Hsp90 NBD; assay: Protein thermal shift assay, C. neoformans Hsp90 NBD; format: binding; conditions: equimolar protein and ligand (10 μM)
Experimental: […]. Using recombinant proteins, assay-independent nanomolar inhibitory constants (Ki) were defined for these compounds. Binding of the compounds to their relevant NBD by thermal shift denaturation assays was also confirmed. Thermal shift assays were performed under saturating ligand conditions, i.e. equimolar concentrations (10 μM) of protein and ligand. As a result, they can provide only qualitative evidence of target binding, but not a quantitative measurement of ligand affinity. […] […]. C. neoformans or C. albicans Hsp90 NBD was combined with equimolar concentrations of the indicated bioactive inhibitors (10 μM) or DMSO control, in technical triplicates. The protein was heated from 25 to 98.6° C. at 0.2° C./5 s in the presence of Sypro Orange dye. All compounds induce an increase in melting temperature relative to the DMSO control, reported as ΔTm.
Protein thermal shift assays. Thermal melting curves were determined using a Protein Thermal Shift Kit (ThermoFisher #4462263), employing a CFX384 Real-Time PCR System (Bio-Rad, C1000 Touch Thermal Cycler). Reactions were performed in a final volume of 10 μL, and contained purified C. albicans or C. neoformans Hsp90 NBD diluted to 250 μg/mL in Buffer HBS-P (GE Healthcare Life Sciences, 0.01 M HEPES pH 7.4, 0.15 M NaCl, 0.005% v/v Surfactant P20) with 10 μM synthetic analog or DMSO control, and 1× Sypro Orange dye solution. Samples were prepared in triplicate in 384-well white plates (Bio-Rad; HSP3805). The instrument was set to melt curve, step 1 (25° C., 2 min) and step 2 (ramp to 98.6° C., increasing 0.2° C. per 5 s cycle). The inflection point of each curve is defined as the protein melting temperature (Tm). Temperature shift, ΔTm, was recorded as the difference between the Tm of the fungal Hsp90 NBD with compound minus Tm of the protein without compound.

Hsp90 (C. neoformans whole cell lysate) (Cryptococcus neoformans, UniProt J9VVA4), sequence (J9VVA4 1-699): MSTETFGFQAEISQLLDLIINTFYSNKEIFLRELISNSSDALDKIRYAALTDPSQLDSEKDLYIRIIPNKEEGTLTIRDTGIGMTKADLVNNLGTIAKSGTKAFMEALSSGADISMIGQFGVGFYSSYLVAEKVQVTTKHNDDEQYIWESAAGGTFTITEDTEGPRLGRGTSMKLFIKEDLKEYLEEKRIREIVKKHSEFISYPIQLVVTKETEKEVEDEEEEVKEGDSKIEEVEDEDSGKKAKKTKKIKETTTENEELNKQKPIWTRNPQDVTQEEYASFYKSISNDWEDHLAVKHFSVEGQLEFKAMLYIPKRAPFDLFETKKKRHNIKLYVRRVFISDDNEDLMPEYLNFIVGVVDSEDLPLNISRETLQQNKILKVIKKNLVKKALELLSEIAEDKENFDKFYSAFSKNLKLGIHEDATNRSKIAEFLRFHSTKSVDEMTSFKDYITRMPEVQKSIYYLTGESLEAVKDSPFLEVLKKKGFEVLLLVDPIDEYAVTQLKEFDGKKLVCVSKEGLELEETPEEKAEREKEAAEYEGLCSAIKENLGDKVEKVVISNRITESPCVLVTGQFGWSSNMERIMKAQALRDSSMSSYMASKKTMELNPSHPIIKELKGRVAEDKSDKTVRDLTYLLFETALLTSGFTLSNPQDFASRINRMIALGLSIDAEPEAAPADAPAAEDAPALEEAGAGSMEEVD
T1 sequence (J9VVA4 1-699): as above

SMILES: COc1cccc(-c2cc(Nc3cc(O)cc(O)c3C(=O)N3Cc4cn[nH]c4C3)n(C)n2)c1 [Compound 114, 5-((3-(3-Methoxyphenyl)-1-methyl-1H-pyrazol-5-yl)amino)-4-(1H,4H,5H,6H-pyrrolo[3,4-c]pyrazole-5-carbonyl)benzene-1,3-diol]
C. alb Active (biochemical) [1]: Yes
MIC80 [2]: > 25 µM
MIC90 [2]: > 25 µM
Kd (C. neoformans Hsp90 NBD [3]): 22 nM
CLint scaled at 1 μM (in vitro): 318 mL/min/kg
% remaining at 15 min (NADPH-free) [4]: 108.2%
% remaining at 15 min [4]: 40.1%
% remaining at 60 min [4]: 7.0%

SMILES: COc1ccccc1-c1cc(Nc2cc(O)cc(O)c2C(=O)N2CC[C@H](NC(C)=O)C2)n(C)n1 [ACSM01349]
C. alb Active (biochemical) [1]: Yes
EC50 [1]: 1210 nM
C. alb Selectivity (FS) [5]: 9.5
C. alb Selective [5]: Yes
C. neo MIC80 [2]: >25 µM
C. neo MIC90 [2]: >25 µM
C. neo Active (cells) [2]: No
C. neo Selectivity (FS) (C. neoformans Hsp90 NBD [6]): 159.7
C. neo selective [7]: Yes
C. neo Active (biochemical) [8]: Yes
EC50 [8]: 246 nM

SMILES: COc1ccc(Cn2ncc(C)c2Nc2cc(O)cc(O)c2C(=O)N2Cc3ccccc3C2)cc1 [Compound 41, 4-(2,3-Dihydro-1H-isoindole-2-carbonyl)-5-((1-((4-methoxyphenyl)methyl)-4-methyl-1H-pyrazol-5-yl)amino)benzene-1,3-diol]
fungicidal activity in combination with fluconazole [9]: fungicidal activity in combination with fluconazole

SMILES: COc1cccc(-c2cc(Nc3cc(O)cc(O)c3C(=O)N3Cc4ccccc4C3)n(C)n2)c1 [Compound 112, 4-(2,3-Dihydro-1H-isoindole-2-carbonyl)-5-((3-(3-methoxyphenyl)-1-methyl-1H-pyrazol-5-yl)amino)benzene-1,3-diol]
C. alb Active (biochemical) [1]: Yes
MIC80 [2]: > 25 µM
MIC90 [2]: > 25 µM
Kd (C. neoformans Hsp90 NBD [3]): 74 nM
CLint scaled at 1 μM (in vitro): 1740 mL/min/kg
half-life (in vitro): 3.2 min
% remaining at 15 min (NADPH-free) [4]: 99.3%
% remaining at 15 min [4]: 3.7%
% remaining at 60 min [4]: 0%

SMILES: COc1ccccc1-c1cc(Nc2cc(O)cc(O)c2C(=O)N2CC[C@@H](OC)C2)n(C)n1 [ACSM01350]
C. alb Active (biochemical) [1]: Yes
EC50 [1]: 233 nM
C. alb Selectivity (FS) [5]: 9.2
C. alb Selective [5]: Yes
C. neo MIC80 [2]: >25 µM
C. neo MIC90 [2]: >25 µM
C. neo Active (cells) [2]: No
C. neo Selectivity (FS) (C. neoformans Hsp90 NBD [6]): 259.7
C. neo selective [7]: Yes
C. neo Active (biochemical) [8]: Yes
EC50 [8]: 106 nM

C. neoformans NBD ΔTm (C. neoformans Hsp90 NBD [10]): 1 °C
Ki (C. neoformans Hsp90 NBD [6]; FP, purified recombinant NBD): 190 nM
SMILES: Cn1nc(-c2ccc(C(F)(F)F)cc2)cc1Nc1cc(O)cc(O)c1C(=O)N1Cc2ccccc2C1 [Compound 124, 4-(2,3-Dihydro-1H-isoindole-2-carbonyl)-5-((1-methyl-3-(4-(trifluoromethyl)phenyl)-1H-pyrazol-5-yl)amino)benzene-1,3-diol]

SMILES: COc1ccccc1-c1cc(Nc2cc(O)cc(O)c2C(=O)N2CC[C@H](NC(C)=O)C2)n(C)n1 [ACSM01348]
C. alb Active (biochemical) [1]: Yes
EC50 [1]: 2250 nM
C. alb Selectivity (FS) [5]: >5
C. alb Selective [5]: Yes
C. neo MIC80 [2]: >25 µM
C. neo MIC90 [2]: >25 µM
C. neo Active (cells) [2]: No
C. neo Selectivity (FS) (C. neoformans Hsp90 NBD [6]): 107.7
C. neo selective [7]: Yes
C. neo Active (biochemical) [8]: Yes
EC50 [8]: 620 nM

SMILES: COc1ccccc1-c1cc(Nc2cc(O)cc(O)c2C(=O)N2CC[C@H](OC)C2)n(C)n1 [ACSM01351]
C. alb Active (biochemical) [1]: Yes
EC50 [1]: 628 nM
C. alb Selectivity (FS) [5]: 4.6
C. alb Selective [5]: No
C. neo MIC80 [2]: >25 µM
C. neo MIC90 [2]: >25 µM
C. neo Selectivity (FS) (C. neoformans Hsp90 NBD [6]): 98
EC50 [8]: 244 nM

SMILES: Cn1nc(-c2ccccc2)cc1Nc1cc(O)cc(O)c1C(=O)N1Cc2ccncc2C1 [BUCMD00467]
C. alb Active (biochemical) [1]: Yes
EC50 [1]: 1040 nM
C. alb Selectivity (FS) [5]: 0.4
C. alb Selective [5]: No
C. neo MIC80 [2]: >25 µM
C. neo MIC90 [2]: >25 µM
C. neo Selectivity (FS) (C. neoformans Hsp90 NBD [6]): 57.3
EC50 [8]: 151 nM

SMILES: COc1cccc(-c2cc(Nc3cc(O)cc(O)c3C(=O)N3Cc4cccnc4C3)n(C)n2)c1 [Compound 113, 5-((3-(3-Methoxyphenyl)-1-methyl-1H-pyrazol-5-yl)amino)-4-(5H,6H,7H-pyrrolo[3,4-b]pyridine-6-carbonyl)benzene-1,3-diol]
C. alb Active (biochemical) [1]: Yes
MIC80 [2]: > 25 µM
MIC90 [2]: > 25 µM
Kd (C. neoformans Hsp90 NBD [3]): 67 nM
CLint scaled at 1 μM (in vitro): 1590 mL/min/kg
half-life (in vitro): 3.4 min
% remaining at 15 min (NADPH-free) [4]: 109.2%
% remaining at 15 min [4]: 4.9%
% remaining at 60 min [4]: 0%
